Measurements reported in patent US20260337177A1, “TEAD CORE INHIBITORS FOR CANCER THERAPEUTICS” (University of Florida Research Foundation, Incorporated, priority 2023, published 2026).

Tested on: CTGF
Assay: CTGF mRNA expression by RT-qPCR in HepG2 cells
Format: cell-based, human
Settings: dose-dependent
Experimental: Huh7 and HepG2 liver cancer cells were seeded at 1×10^6 cells/dish and allowed to adhere overnight. The cells were then treated with indicated doses of compounds in medium for 24 hours. The cells were then harvested, and total RNA was purified using the Aurum total RNA mini kit (Bio-Rad #732-6820) according to the manufacturer's instructions. Complementary DNA was synthesized from 500 ng total RNA template by iScript reverse transcription kit (Bio-Rad #1725037) according to the manufacturer's instructions. Real-time PCR reactions utilized 60 ng cDNA and PrimePCR primers from Bio-Rad (Unique Assay ID: human GAPDH-qHsaCEP0041396, human CTGF-qHsaCEP0024255, human CYR61-qHsaCEP0024230) designed for SYBR Green gene expression analysis (Bio-Rad #1726270). All reactions were carried out in triplicate using Quant Studio 3 PCR system (Applied Biosystems). Relative gene expression level was quantified via ΔΔCt method by using GAPDH as an endogenous reference.

With `O=C(CCl)c1c[nH]c2cc(Cl)c(OCc3cccc(C(F)(F)F)c3)cc12` [Compound 22, 2-chloro-1-(6-chloro-5-((3-(trifluoromethyl)benzyl)oxy)-1H-indol-3-yl)ethan-1-one] the “CTGF mRNA expression, HepG2” value was “significantly inhibited”.
